Activity calls are given as the source filed them. The calls are words filed in the database; no cut-off is given here.
Columns and labels:
MDA-MB-231 = assay: Growth inhibition of human MDA-MB-231 cells assessed as cell viability at 10 uM incubated for 48 hrs by sulforhodamine B assay; type: functional; conditions: MDA-MB-231, 48 h, read-out: Activity
CCRF-CEM = assay: Growth inhibition of human CCRF-CEM cells assessed as cell viability at 10 uM incubated for 48 hrs by sulforhodamine B assay; type: functional; conditions: read-out: Activity
IGROV-1 = assay: Growth inhibition of human IGROV1 cells assessed as cell viability at 10 uM incubated for 48 hrs by sulforhodamine B assay; type: functional; conditions: IGROV-1, 48 h, read-out: Activity
[1] = Growth inhibition of human MOLT4 cells assessed as cell viability at 10 uM incubated for 48 hrs by sulforhodamine B assay; type: functional; conditions: MOLT-4, 48 h, read-out: Activity
OVCAR-3 = assay: Growth inhibition of human OVCAR3 cells assessed as cell viability at 10 uM incubated for 48 hrs by sulforhodamine B assay; type: functional; conditions: OVCAR-3, 48 h, read-out: Activity
T47D = assay: Growth inhibition of human T47D cells assessed as cell viability at 10 uM incubated for 48 hrs by sulforhodamine B assay; type: functional; conditions: read-out: Activity
Rattus norvegicus [2] = assay: Antidiabetic activity in STZ-induced diabetic Wistar rat model assessed as reduction in blood glucose level at 30 mg/kg, po repeated for 15 days by GOD-POD method; type: functional, organism-based
[3] = Growth inhibition of human RXF393 cells assessed as cell viability at 10 uM incubated for 48 hrs by sulforhodamine B assay; type: functional; conditions: RXF 393, 48 h, read-out: Activity
A549 = assay: Growth inhibition of human A549/ATCC cells assessed as cell viability at 10 uM incubated for 48 hrs by sulforhodamine B assay; type: functional; conditions: A549, 48 h, read-out: Activity
U-251 = assay: Growth inhibition of human U251 cells assessed as cell viability at 10 uM incubated for 48 hrs by sulforhodamine B assay; type: functional; conditions: U-251, 48 h, read-out: Activity
MDA-MB-468 = assay: Growth inhibition of human MDA-MB-468 cells assessed as cell viability at 10 uM incubated for 48 hrs by sulforhodamine B assay; type: functional; conditions: MDA-MB-468, 48 h, read-out: Activity
Rattus norvegicus [4] = assay: Toxicity in STZ-induced diabetic Wistar rat model assessed as increase in body weight at 30 mg/kg, po repeated for 15 days […]; type: organism-based; conditions: in vivo, 360 h
[5] = Growth inhibition of human HOP92 cells assessed as cell viability at 10 uM incubated for 48 hrs by sulforhodamine B assay; type: functional; conditions: HOP-92, 48 h, read-out: Activity
SK-MEL-28 = assay: Growth inhibition of human SK-MEL-28 cells assessed as cell viability at 10 uM incubated for 48 hrs by sulforhodamine B assay; type: functional; conditions: SK-MEL-28, 48 h, read-out: Activity
K562 = assay: Growth inhibition of human K562 cells assessed as cell viability at 10 uM incubated for 48 hrs by sulforhodamine B assay; type: functional; conditions: K562, 48 h, read-out: Activity
OVCAR-8 = assay: Growth inhibition of human OVCAR8 cells assessed as cell viability at 10 uM incubated for 48 hrs by sulforhodamine B assay; type: functional; conditions: OVCAR-8, 48 h, read-out: Activity
OVCAR-4 = assay: Growth inhibition of human OVCAR4 cells assessed as cell viability at 10 uM incubated for 48 hrs by sulforhodamine B assay; type: functional; conditions: OVCAR-4, 48 h, read-out: Activity
HL-60(TB) = assay: Growth inhibition of human HL-60(TB) cells assessed as cell viability at 10 uM incubated for 48 hrs by sulforhodamine B assay; type: functional; conditions: HL-60, 48 h, read-out: Activity
[6] = Growth inhibition of human RPMI8226 cells assessed as cell viability at 10 uM incubated for 48 hrs by sulforhodamine B assay; type: functional; conditions: RPMI-8226, 48 h, read-out: Activity
Malme-3M = assay: Growth inhibition of human MALME-3M cells assessed as cell viability at 10 uM incubated for 48 hrs by sulforhodamine B assay; type: functional; conditions: read-out: Activity
[7] = Growth inhibition of human NCI60 cells assessed as cell viability at 10 uM incubated for 48 hrs by sulforhodamine B assay; type: functional; conditions: NCI60, 48 h, read-out: Activity
[8] = target: T1, Peroxisome proliferator-activated receptor gamma (Homo sapiens) (UniProt P37231); assay: Agonist activity at PPARgamma (unknown origin) expressed in HEK293 cells assessed as receptor transactivation at 10 uM incubated for 24 hrs by luciferase reporter gene assay; type: cell-based
T1 sequence (whole entry): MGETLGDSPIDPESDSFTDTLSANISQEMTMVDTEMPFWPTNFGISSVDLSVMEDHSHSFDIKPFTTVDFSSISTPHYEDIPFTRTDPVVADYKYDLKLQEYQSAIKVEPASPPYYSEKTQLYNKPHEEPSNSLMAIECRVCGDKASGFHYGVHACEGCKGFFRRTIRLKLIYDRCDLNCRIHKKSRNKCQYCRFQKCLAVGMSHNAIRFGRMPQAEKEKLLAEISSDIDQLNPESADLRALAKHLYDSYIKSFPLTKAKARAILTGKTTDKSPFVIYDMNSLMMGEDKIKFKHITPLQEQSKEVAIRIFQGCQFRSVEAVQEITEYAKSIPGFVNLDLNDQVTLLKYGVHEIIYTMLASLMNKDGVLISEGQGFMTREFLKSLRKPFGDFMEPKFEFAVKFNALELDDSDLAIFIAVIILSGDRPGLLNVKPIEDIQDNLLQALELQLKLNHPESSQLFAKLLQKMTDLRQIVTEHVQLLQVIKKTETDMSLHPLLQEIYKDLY

SK-MEL-2 = assay: Growth inhibition of human SK-MEL-2 cells assessed as cell viability at 10 uM incubated for 48 hrs by sulforhodamine B assay; type: functional; conditions: SK-MEL-2, 48 h, read-out: Activity
TK-10 = assay: Growth inhibition of human TK10 cells assessed as cell viability at 10 uM incubated for 48 hrs by sulforhodamine B assay; type: functional; conditions: TK-10, 48 h, read-out: Activity
NCI-H522 = assay: Growth inhibition of human NCI-H522 cells assessed as cell viability at 10 uM incubated for 48 hrs by sulforhodamine B assay; type: functional; conditions: NCI-H522, 48 h, read-out: Activity

## COc1ccc(C2CC(c3cc4ccccc4oc3=O)=NN2c2ccc(S(=O)(=O)NC(=O)Nc3ccccc3C)cc2)cc1 (configuration not stated)
MDA-MB-231
  viability at 10 µM: 65.9%
CCRF-CEM
  viability at 10 µM: 92.6%
IGROV-1
  viability at 10 µM: 109%
[1]
  viability at 10 µM: 84.6%
OVCAR-3
  viability at 10 µM: 107%
T47D
  viability at 10 µM: 95.8%
Rattus norvegicus [2]
  Activity: Active
[3]
  viability at 10 µM: 116%
A549
  viability at 10 µM: 96.6%
U-251
  viability at 10 µM: 99.4%
MDA-MB-468
  viability at 10 µM: 100%
Rattus norvegicus [4]
  Activity: Non-toxic
[5]
  viability at 10 µM: 60.7%
SK-MEL-28
  viability at 10 µM: 102%
K562
  viability at 10 µM: 76.8%
OVCAR-8
  viability at 10 µM: 99.9%
OVCAR-4
  viability at 10 µM: 86.9%
HL-60(TB)
  viability at 10 µM: 108%
[6]
  viability at 10 µM: 85.8%
Malme-3M
  viability at 10 µM: 104%
[7]
  viability at 10 µM: 93.4%
[8]
  Activity: Active

## COc1ccc(C2CC(c3ccco3)=NN2c2ccc(S(=O)(=O)NC(=O)NCc3ccccc3)cc2)cc1 (configuration not stated)
MDA-MB-231
  viability at 10 µM: 112%
CCRF-CEM
  viability at 10 µM: 99%
SK-MEL-2
  viability at 10 µM: 90.7%
IGROV-1
  viability at 10 µM: 113%
[1]
  viability at 10 µM: 110%
OVCAR-3
  viability at 10 µM: 113%
TK-10
  viability at 10 µM: 93%
T47D
  viability at 10 µM: 84.6%
NCI-H522
  viability at 10 µM: 86.3%
Rattus norvegicus [2]
  Activity: Active
[3]
  viability at 10 µM: 113%
A549
  viability at 10 µM: 92.8%
U-251
  viability at 10 µM: 99.3%
MDA-MB-468
  viability at 10 µM: 101%
Rattus norvegicus [4]
  Activity: Non-toxic
[5]
  viability at 10 µM: 80.6%
SK-MEL-28
  viability at 10 µM: 101%
K562
  viability at 10 µM: 98%
OVCAR-8
  viability at 10 µM: 97.9%
OVCAR-4
  viability at 10 µM: 97.1%
HL-60(TB)
  viability at 10 µM: 126%
[6]
  viability at 10 µM: 102%
Malme-3M
  viability at 10 µM: 107%
[7]
  viability at 10 µM: 101%
[8]
  Activity: Active

## O=C(NCc1ccccc1)NS(=O)(=O)c1ccc(N2N=C(c3cc4ccccc4oc3=O)CC2c2cccs2)cc1 (configuration not stated)
MDA-MB-231
  viability at 10 µM: 103%
CCRF-CEM
  viability at 10 µM: 108%
SK-MEL-2
  viability at 10 µM: 96%
IGROV-1
  viability at 10 µM: 117%
[1]
  viability at 10 µM: 106%
OVCAR-3
  viability at 10 µM: 106%
TK-10
  viability at 10 µM: 108%
T47D
  viability at 10 µM: 97.4%
NCI-H522
  viability at 10 µM: 96.3%
[3]
  viability at 10 µM: 123%
A549
  viability at 10 µM: 99.3%
U-251
  viability at 10 µM: 102%
MDA-MB-468
  viability at 10 µM: 110%
[5]
  viability at 10 µM: 94.2%
SK-MEL-28
  viability at 10 µM: 97.4%
K562
  viability at 10 µM: 111%
OVCAR-8
  viability at 10 µM: 103%
OVCAR-4
  viability at 10 µM: 98.2%
HL-60(TB)
  viability at 10 µM: 119%
[6]
  viability at 10 µM: 105%
Malme-3M
  viability at 10 µM: 90.7%
[7]
  viability at 10 µM: 103%

## COc1ccc(NC(=O)NS(=O)(=O)c2ccc(N3N=C(c4cc5ccccc5oc4=O)CC3c3ccc(N(C)C)cc3)cc2)cc1 (configuration not stated)
MDA-MB-231
  viability at 10 µM: 97%
CCRF-CEM
  viability at 10 µM: 107%
IGROV-1
  viability at 10 µM: 109%
[1]
  viability at 10 µM: 107%
OVCAR-3
  viability at 10 µM: 102%
T47D
  viability at 10 µM: 87.7%
[3]
  viability at 10 µM: 105%
A549
  viability at 10 µM: 95%
U-251
  viability at 10 µM: 91.8%
MDA-MB-468
  viability at 10 µM: 104%
[5]
  viability at 10 µM: 79.8%
SK-MEL-28
  viability at 10 µM: 101%
K562
  viability at 10 µM: 114%
OVCAR-8
  viability at 10 µM: 94.9%
OVCAR-4
  viability at 10 µM: 92.4%
HL-60(TB)
  viability at 10 µM: 130%
[6]
  viability at 10 µM: 98%
Malme-3M
  viability at 10 µM: 81%
[7]
  viability at 10 µM: 95.5%

## CN(C)c1ccc(C2CC(c3cc4ccccc4oc3=O)=NN2c2ccc(S(=O)(=O)NC(=O)NCc3ccccc3)cc2)cc1 (configuration not stated)
MDA-MB-231
  viability at 10 µM: 78.1%
CCRF-CEM
  viability at 10 µM: 72%
IGROV-1
  viability at 10 µM: 97.8%
[1]
  viability at 10 µM: 66.6%
OVCAR-3
  viability at 10 µM: 82.2%
T47D
  viability at 10 µM: 64%
[3]
  viability at 10 µM: 85.4%
A549
  viability at 10 µM: 61%
U-251
  viability at 10 µM: 67.8%
MDA-MB-468
  viability at 10 µM: 68.2%
[5]
  viability at 10 µM: 49.1%
SK-MEL-28
  viability at 10 µM: 57.4%
K562
  viability at 10 µM: 59.5%
OVCAR-8
  viability at 10 µM: 71.7%
OVCAR-4
  viability at 10 µM: 52.8%
HL-60(TB)
  viability at 10 µM: 66.4%
[6]
  viability at 10 µM: 66.1%
Malme-3M
  viability at 10 µM: 89.9%
[7]
  viability at 10 µM: 65.8%

Source: ChEMBL document CHEMBL3621178, “Antidiabetic effect of novel benzenesulfonylureas as PPAR-γ agonists and their anticancer effect” (Bioorg Med Chem Lett, 2015)
